The subject of one data set is HIV-1. Nature of the data set: Anti-viral activity: syncytium formation (Sup T1) or reverse transcriptase assay (H9). Type of data set: cell-based. Particulars: Human immunodeficiency virus 1; concentration that inhibits the proliferation of HIV by 50%; H9 and Sup T1 cell lines, 200 TCID50 HIV-1; cell line not given; read-out: IC. The protocol: The anti-viral activity of the compounds of the present invention was determined by measuring the concentration of the compounds that inhibits the proliferation of HIV by 50%(IC50) through a survey for syncytium formation or reverse transcriptase assay.
1 x 10^5 cells of each of H9(ATCC HTB 176) and Sup T1 cell lines were added to the wells of a 24-well microtiter plate and various concentrations of the compounds of the present invention were added thereto. 200 TCID50(200-fold of 50% tissue culture infection dose) of HIV-1 inoculum and rpmi-1640 medium(Sigma Chemical Co., U.S.A) were added successively to the wells and the plate was incubated at 37°C. In case of Sup T1, the number of syncytium formed was investigated after 3 to 9 days. IC50 of each compound was determined by measuring the concentration of inhibitor that can reduce the number of syncytium by 50% compared with those formed in the same condition without the inhibitor.
In case of H9, three-quarters(3/4) of the culture medium in volume was refreshed every 3 days; and after 9 days, 6ml of the culture fluid was taken and 2.5ml of 30% polyethyleneglycol(PEG, M.W. 6000-8000) and 0.4M NaCl were added thereto. The resulting solution was allowed to stand at 0°C overnight to precipitate virus particles. The solution was centrifuged at 2000rpm for 45 minutes, the supernatant was discarded therefrom and the precipitate was diluted with 20µl of a reverse transcriptase suspension buffer(50mM tris-HCl, pH 7.5, 1mM dithiothreitol, 20% glycerol, 0.25M KCl and 0.25% Triton X-100). The resulting suspension was stored in an Effendorf tube at -70°C until used. A procedure of freezing said virus suspension for 2 minutes in dry ice and thawing same at 37°C for 2 minutes was repeated three times and the resulting suspension was centrifuged at 4°C. The resulting supernatant was used in carrying out the reverse transcriptase assay.
10µl of the said viral suspension was added to a solution of: 10µl of buffer solution(250mM tris-HCl, pH 7.5, 37.5mM MgCl2, 0.25% triton X-100), 1.2µl of 200mM dithiothreitol, 5µl of 100µM oligo(dT)-poly(A)(Boeringer Manheim, 12-18 oligomer), 1µl(1µCi) of ^3H-TTP(Thymidinetri-phosphate) and 23.6µl of water; and the resulting mixture was placed at 37°C. After 1 hour, the mixture was poured onto a WHATMAN DEB1 filter and the filter was washed three times with 5ml of 2 x SSC buffer solution(17.53g of sodium chloride, 8.82g of sodium citrate, pH 7.0, 1 liter of water) for about 10 minutes each time and twice with 95% methanol for 10 seconds. The filter was put onto aluminium foil and dried with an infrared lamp. The amount of radioactivity was counted using a liquid scintillation counter.

A further data set can be described thus: in vitro. As to conditions: human, h9 or sup t1 cells. The protocol: To determine the cytotoxicity of the compounds of the present invention, 0.1µM to 100µM of the novel compounds were added to H9 cell or Sup T1 cell and the mixture was cultured on a rpmi-1640 medium at 37°C. The medium was refreshed every 3 days and the extent of cell proliferation was observed using Hemacytometer according to the trypan blue dye exclusion technique which is well known in the art. CT50(i.e., concentration that causes death of cells by 50%) was determined. As control compounds, azidothymidine(AZT, Burrows-Wellcome Co.) and Ro-31 8959(Hoffmann-La Roche AG) were used. […]

For a further data set, the target named is T1, HIV-1 protease (Human immunodeficiency virus type 1 group M subtype B, UniProt P04585).
T1 construct: addition of 2.6nM of HIV-1 protease
The data set can be described thus: Assay for inhibitory effect on HIV protease (irreversible inhibition kinetics, HPLC readout). Type of data set: biochemical. Particulars: second order rate constant; 2.6nM HIV-1 protease, pH 5.5; KINSIM/FITSIM fit; exact values hard to calculate above 10^9. How it is done:
The inhibitory effect on HIV protease of the compounds of the present invention was determined by the following method.
To a buffer solution comprising 50mM sodium acetate, pH 5.5, 1mM dithiothreitol (DTT), 1mM ethylenediaminetetra-acetate (EDTA), 0.75M ammonium sulfate, 0.2M sodium chloride and 0.1% NP40(NONIGET P-40; Sigma Chemical Co., U.S.A.), were added various concentrations of a compound selected from the compound obtained in Examples 1 to 9 to prepare a preincubation solution. Inhibition reaction was started with the addition of 2.6nM of HIV-1 protease to the preincubation solution. Each 10µl of the reaction solution was taken at a given time interval and added to 80µl of assay solution containing 100µM of reaction substrate in the same buffer solution as the above to assay for the residual enzyme activity. In this context, an oligopeptide(KM=20µM) consisting of 11 amino acids, i.e., Ser-Ile-Ala-Glu-(p-NO2)-Phe-Leu-Val-Arg-Ala-Lys-His, was used as a reaction substrate, which oligopeptide was to be cleaved in two by the breakage of amide bond between (P-NO2)-Phe and Leu upon the attack of HIV protease. The reaction rate was determined by subjecting the substrate before the reaction and the product after the reaction to HPLC separation and then measuring the relative amount of the product, using the strong absorbance of (p-NO2)-Phe at 280nm. The amounts of reduction in enzyme activity according to the elasped time were measured and the natural logarithmic values(ln) of the measured amounts were plotted against time to obtain a linear graph and kobs was calculated from the slope of the linear graph.
The inhibition constant was calculated according to the following equation: (1)/(kobs)=(1)/(kina)+(KI)/(kina)(1)/([I]) [formula] wherein: kobs is a rate constant indicating the rate of reduction in enzyme activity according to the elapsed time under the presence of a given concentration of inhibitor, kina is a rate constant indicating the rate of chemical reaction forming covalent bond between an enzyme and an inhibitor in Michaelis-Menten complex, KI is an inhibition constant indicating the dissociation rate of Michaelis-Menten complex into an enzyme and an inhibitor, and [I] means the inhibitor concentration.
The above equation is applicable to an experiment carried out under the condition in which the concentration of inhibitor is fear higher than that of enzyme (Steady State Kinetic). […] The inhibition constants KI and kina and second order rate constant kina/KI were obtained by inputting the value of [E]/([E]+[EI]+[EI']) [formula] into KINSIM/FITSIM program.

The structures appear in SMILES notation.

Turning to `Cc1cn([C@H]2C[C@H](N=[N+]=[N-])[C@@H](CO)O2)c(=O)[nH]c1=O` [AZT, azidothymidine, reference compound], the IC50 in the data set with HIV-1 turned out to be 12 nM. In addition, the CC50 in the data set “in vitro” is > 10000 nM.
`CC(C)(C)NS(=O)(=O)CC[C@@H]1O[C@@H]1[C@H](Cc1ccccc1)NC(=O)[C@@H](NC(=O)OCc1ccccc1)C(C)(C)S(C)(=O)=O` [Ex. 1, N-t-butyl-5S-[N-benzyloxycarbonyl-β-methanesulfonyl-L-valinyl]amino-(4R,3S)-epoxy-6-phenylhexanesulfonamide]: the kinact/KI on HIV-1 protease is 1.67e+07 to 1.67e+08 M⁻¹ s⁻¹. Further, in the data set with HIV-1, the IC50 came to 25 nM. Further, the CC50 in “in vitro” was > 10000 nM.
Taken in the same sequence, the figures for `CC(C)(C)NS(=O)(=O)CC[C@@H]1O[C@@H]1[C@H](Cc1ccccc1)NC(=O)[C@@H](NC(=O)c1ccc2ccccc2n1)C(C)(C)S(C)(=O)=O` [Ex. 2, N-t-butyl-5S-[N-(2-quinolinecarbonyl)-β-methanesulfonyl-L-valinyl]amino-(4R,3S)-epoxy-6-phenylhexanesulfonamide] were 1.67e+07 to 1.67e+08 M⁻¹ s⁻¹, 30 nM and > 10000 nM.
Taken in the same sequence, the figures for `CC(C)(C)NS(=O)(=O)CC[C@@H]1O[C@@H]1[C@H](Cc1ccccc1)NC(=O)[C@H](CC(N)=O)NC(=O)c1ccc2ccccc2n1` [Ex. 3] were 1.67e+07 to 1.67e+08 M⁻¹ s⁻¹, 10 nM and > 10000 nM.
For `CN(C(C)(C)C)S(=O)(=O)CC[C@@H]1O[C@@H]1[C@H](Cc1ccccc1)NC(=O)[C@@H](NC(=O)OCc1ccccc1)C(C)(C)S(C)(=O)=O` [Ex. 4, N-t-butyl-N-methyl-5S-[N-benzyloxycarbonyl-β-methanesulfonyl-L-valinyl]amino-(4R,3S)-epoxy-6-phenylhexanesulfonamide] the same measures were 1.67e+07 to 1.67e+08 M⁻¹ s⁻¹, 1 nM and > 10000 nM.
Consider `CN(C(C)(C)C)S(=O)(=O)CC[C@@H]1O[C@@H]1[C@H](Cc1ccccc1)NC(=O)[C@@H](NC(=O)COc1cccc2cnccc12)C(C)(C)S(C)(=O)=O` [Ex. 5, N-t-butyl-N-methyl-5S-(N-(5-isoquinolyloxymethylcarbonyl)-β-methanesulfonyl-L-valinyl]amino-(4R,3S)-epoxy-6-phenylhexanesulfonamide], for which the second-order inactivation constant (kinact/KI) at HIV-1 protease was 1.67e+07 to 1.67e+08 M⁻¹ s⁻¹. For the same compound, the IC50 in the data set with HIV-1 was 5 nM. The CC50 in the data set “in vitro” is > 10000 nM.
Take `CCN(c1ccccc1)S(=O)(=O)CC[C@@H]1O[C@@H]1[C@H](Cc1ccccc1)NC(=O)[C@@H](NC(=O)c1ccc2ccccc2n1)C(C)(C)S(C)(=O)=O` [Ex. 6, N-ethyl-N-phenyl-5S-[N-(2-quinolinecarbonyl)-β-methanesulfonyl-L-valinyl]amino-(4R,3S)-epoxy-6-phenylhexanesulfonamide]: the kinact/KI at HIV-1 protease was 1.67e+07 to 1.67e+08 M⁻¹ s⁻¹. The IC50 in the data set with HIV-1 came to 5 nM. The CC50 in the data set “in vitro” was > 10000 nM.
Taken in the same sequence, the figures for `CCN(c1ccccc1)S(=O)(=O)CC[C@@H]1O[C@@H]1[C@H](Cc1ccccc1)NC(=O)[C@H](CC(N)=O)NC(=O)c1ccc2ccccc2n1` [Ex. 7, N-ethyl-N-phenyl-5S-[N-(2-quinolinecarbonyl)-L-asparaginyl]amino-(4R,3S)-epoxy-6-phenylhexanesulfonaimide] were 1.67e+07 to 1.67e+08 M⁻¹ s⁻¹, 20 nM and > 10000 nM.
For `CCN(C(C)C)S(=O)(=O)CC[C@@H]1O[C@@H]1[C@H](Cc1ccccc1)NC(=O)[C@@H](NC(=O)c1ccc2ccccc2n1)C(C)(C)S(C)(=O)=O` [Ex. 8, N-ethyl-N-isopropyl-5S-[N-(2-quinolinecarbonyl)-β-methanesulfonyl-L-valinyl]amino-(4R,3S)-epoxy-6-phenylhexanesulfonamide] the same measures were 1.67e+07 to 1.67e+08 M⁻¹ s⁻¹, 10 nM and > 10000 nM.
Taken in the same sequence, the figures for `CC(C)C(NS(=O)(=O)CC[C@@H]1O[C@@H]1[C@H](Cc1ccccc1)NC(=O)[C@@H](NC(=O)OCc1ccccc1)C(C)(C)S(C)(=O)=O)C(C)C` [Ex. 9, N-(2,4-dimethyl-3-pentyl)-5S-[N-(2-benzyloxycarbonyl)-β-methanesulfonyl-L-valinyl]amino-(4R,3S)-epoxy-6-phenylhexanesulfonamide] were 1.67e+07 to 1.67e+08 M⁻¹ s⁻¹, 10 nM and > 10000 nM.

The values are drawn from patent EP0812857A1, “Irreversible HIV protease inhibitors, compositions containing same and process for the preparation thereof” (LG Chemical Limited, priority 1996, dated 1997).
